Reference: patent US8802597B2, “Herbicidal pyrimidines” (E I du Pont de Nemours and Company, priority 2003, dated 2014)
Where two headings read alike, the source gives them in different places.

Tests used:
Assay type in all cases: in vivo
[1] = tested on: Surinam grass (Brachiaria decumbens); test: Test B pre/postemergence; conditions: Urochloa decumbens; for pest or weed control at 125 g/ha: 125 g ai/ha; for pest or weed control at 500 g/ha: 500 g ai/ha
Method in brief: (§1)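 Formulation: non-phytotoxic solvent blend with surfactant. Timing: preemergence on seeds, postemergence at 1- to 4-leaf (2–18 cm). Assessment: visual, 0–100 against controls, after 13–15 days' greenhouse growth.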

[2] = tested on: pigweed (Amaranthus retroflexus); test: Test B pre/postemergence; conditions: Amaranthus retroflexus; for pest or weed control at 125 g/ha: 125 g ai/ha; for pest or weed control at 500 g/ha: 500 g ai/ha
Method in brief: as §1

corn (Zea mays) = test: Test B pre/postemergence; conditions: Zea mays
Method in brief: as §1

[3] = tested on: barnyardgrass (Echinochloa crus-galli); test: Test B pre/postemergence; conditions: Echinochloa crus-galli; for pest or weed control at 125 g/ha: 125 g ai/ha; for pest or weed control at 500 g/ha: 500 g ai/ha
Method in brief: as §1

[4] = tested on: crabgrass (Digitaria sanguinalis); test: Test B pre/postemergence; conditions: Digitaria sanguinalis; for pest or weed control at 125 g/ha: 125 g ai/ha; for pest or weed control at 500 g/ha: 500 g ai/ha
Method in brief: as §1

[5] = tested on: wheat (Triticum aestivum); test: Test B pre/postemergence; conditions: Triticum aestivum; for plant injury at 125 g/ha: 125 g ai/ha; for plant injury at 500 g/ha: 500 g ai/ha
Method in brief: as §1

[6] = tested on: lambsquarters (Chenopodium album); test: Test B pre/postemergence; conditions: Chenopodium album; for pest or weed control at 125 g/ha: 125 g ai/ha; for pest or weed control at 500 g/ha: 500 g ai/ha
Method in brief: as §1

[7] = tested on: cocklebur (Xanthium strumarium); test: Test B pre/postemergence; conditions: Xanthium strumarium; for pest or weed control at 125 g/ha: 125 g ai/ha; for pest or weed control at 500 g/ha: 500 g ai/ha
Method in brief: as §1

[8] = tested on: morningglory (Ipomoea coccinea); test: Test B pre/postemergence; conditions: Ipomoea; for pest or weed control at 125 g/ha: 125 g ai/ha; for pest or weed control at 500 g/ha: 500 g ai/ha
Method in brief: as §1

[9] = tested on: giant foxtail (Setaria faberii); test: Test B pre/postemergence; conditions: Setaria faberi; for pest or weed control at 125 g/ha: 125 g ai/ha; for pest or weed control at 500 g/ha: 500 g ai/ha
Method in brief: as §1

[10] = tested on: velvetleaf (Abutilon theophrasti); test: Test B pre/postemergence; conditions: Abutilon theophrasti; for pest or weed control at 125 g/ha: 125 g ai/ha; for pest or weed control at 500 g/ha: 500 g ai/ha
Method in brief: as §1

[11] = tested on: barnyardgrass (Echinochloa crus-galli); test: Test B flooded paddy test; conditions: Echinochloa crus-galli, Flood, 1000 g ai/ha; scale 0 (no effect) to 100 (complete control); read-out: Plant response rating, Barnyardgrass
Method in brief: (§2)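 Plants were grown to the 2-leaf stage before treatment, then kept in a greenhouse for 13 to 15 days. Injury was rated visually against untreated controls on a 0 to 100 scale, where 0 is no effect and 100 is complete control.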

[12] = tested on: duck salad (Heteranthera limosa); test: Test B flooded paddy test; conditions: Heteranthera limosa, Flood, 1000 g ai/ha; scale 0 to 100; read-out: Plant response rating, Ducksalad
Method in brief: as §2

rice (Oryza sativa) = test: Test B flooded paddy test; conditions: Oryza sativa, Flood, 1000 g ai/ha; scale 0 to 100; read-out: Plant response rating, Rice
Method in brief: as §2

[13] = tested on: umbrella sedge (Cyperus difformis); test: Test B flooded paddy test; conditions: Cyperus difformis, Flood, 1000 g ai/ha; scale 0 to 100; read-out: Plant response rating, Sedge, Umbrella
Method in brief: as §2

[14] = tested on: blackgrass (Alopecurus myosuroides); test: Test B postemergence; conditions: Alopecurus myosuroides, post-emergence
Method in brief: as §1

wild oat (Avena fatua) = test: Test B postemergence; conditions: Avena fatua, post-emergence
Method in brief: as §1

## Nc1nc(C2CC2)nc(CO)c1Br [Compound 21]
[1]; post-emergence, Postemergence, scale 0 to 100 (0 no effect, 100 complete control), read-out: Surinam Grass plant response rating
  pest or weed control at 125 g/ha: 0%
[1]; post-emergence, Postemergence, scale 0 to 100, read-out: Plant response rating, Surinam Grass
  pest or weed control at 500 g/ha: 0%
[1]; pre-emergence, Preemergence, scale 0 to 100 (0 no effect, 100 complete control), read-out: Plant response rating, Surinam Grass
  pest or weed control at 125 g/ha: 0%
[1]; pre-emergence, Preemergence, scale 0 to 100 (0 no effect, 100 complete control), read-out: Surinam Grass plant response rating
  pest or weed control at 500 g/ha: 20%
[2]; post-emergence, Postemergence, scale 0 to 100 (0 no effect, 100 complete control), read-out: Pigweed plant response rating
  pest or weed control at 125 g/ha: 0%
[2]; post-emergence, Postemergence, scale 0 to 100, read-out: Plant response rating, Pigweed
  pest or weed control at 500 g/ha: 30%
[2]; pre-emergence, Preemergence, scale 0 to 100 (0 no effect, 100 complete control), read-out: Plant response rating, Pigweed
  pest or weed control at 125 g/ha: 50%
[2]; pre-emergence, Preemergence, scale 0 to 100 (0 no effect, 100 complete control), read-out: Pigweed plant response rating
  pest or weed control at 500 g/ha: 70%
Corn (Zea mays); post-emergence, Postemergence, 125 g ai/ha, scale 0 to 100 (0 no effect, 100 complete control), read-out: Corn plant response rating
  plant injury at 125 g/ha: 0%
Corn (Zea mays); post-emergence, Postemergence, 500 g ai/ha, scale 0 to 100
  Corn plant response rating (crop injury, 0 = no effect, 100 = complete kill) at 500 g/ha: 0%
Corn (Zea mays); pre-emergence, Preemergence, 125 g ai/ha, scale 0 to 100 (0 no effect, 100 complete control)
  Corn plant response rating (crop injury, 0 = no effect, 100 = complete kill) at 125 g/ha: 0%
[3]; post-emergence, Postemergence, scale 0 to 100 (0 no effect, 100 complete control), read-out: Barnyardgrass plant response rating
  pest or weed control at 125 g/ha: 0%
[3]; post-emergence, Postemergence, scale 0 to 100, read-out: Plant response rating, Barnyardgrass
  pest or weed control at 500 g/ha: 0%
[3]; pre-emergence, Preemergence, scale 0 to 100 (0 no effect, 100 complete control), read-out: Plant response rating, Barnyardgrass
  pest or weed control at 125 g/ha: 0%
[3]; pre-emergence, Preemergence, scale 0 to 100 (0 no effect, 100 complete control), read-out: Barnyardgrass plant response rating
  pest or weed control at 500 g/ha: 10%
[4]; post-emergence, Postemergence, scale 0 to 100 (0 no effect, 100 complete control), read-out: Crabgrass plant response rating
  pest or weed control at 125 g/ha: 0%
[4]; post-emergence, Postemergence, scale 0 to 100, read-out: Plant response rating, Crabgrass
  pest or weed control at 500 g/ha: 0%
[4]; pre-emergence, Preemergence, scale 0 to 100 (0 no effect, 100 complete control), read-out: Plant response rating, Crabgrass
  pest or weed control at 125 g/ha: 0%
[4]; pre-emergence, Preemergence, scale 0 to 100 (0 no effect, 100 complete control), read-out: Crabgrass plant response rating
  pest or weed control at 500 g/ha: 60%
[5]; post-emergence, Postemergence, scale 0 to 100 (0 no effect, 100 complete control), read-out: Wheat plant response rating
  plant injury at 125 g/ha: 10%
[5]; post-emergence, Postemergence, scale 0 to 100, read-out: Plant response rating, Wheat
  plant injury at 500 g/ha: 20%
[5]; pre-emergence, Preemergence, scale 0 to 100 (0 no effect, 100 complete control), read-out: Plant response rating, Wheat
  plant injury at 125 g/ha: 0%
[5]; pre-emergence, Preemergence, scale 0 to 100 (0 no effect, 100 complete control), read-out: Wheat plant response rating
  plant injury at 500 g/ha: 30%
[6]; post-emergence, Postemergence, scale 0 to 100 (0 no effect, 100 complete control), read-out: Lambsquarters plant response rating
  pest or weed control at 125 g/ha: 10%
[6]; post-emergence, Postemergence, scale 0 to 100, read-out: Plant response rating, Lambsquarters
  pest or weed control at 500 g/ha: 20%
[6]; pre-emergence, Preemergence, scale 0 to 100 (0 no effect, 100 complete control), read-out: Plant response rating, Lambsquarters
  pest or weed control at 125 g/ha: 70%
[6]; pre-emergence, Preemergence, scale 0 to 100 (0 no effect, 100 complete control), read-out: Lambsquarters plant response rating
  pest or weed control at 500 g/ha: 80%
[7]; post-emergence, Postemergence, scale 0 to 100 (0 no effect, 100 complete control), read-out: Cocklebur plant response rating
  pest or weed control at 125 g/ha: 0%
[7]; post-emergence, Postemergence, scale 0 to 100, read-out: Plant response rating, Cocklebur
  pest or weed control at 500 g/ha: 10%
[7]; pre-emergence, Preemergence, scale 0 to 100 (0 no effect, 100 complete control), read-out: Plant response rating, Cocklebur
  pest or weed control at 125 g/ha: 30%
[7]; pre-emergence, Preemergence, scale 0 to 100 (0 no effect, 100 complete control), read-out: Cocklebur plant response rating
  pest or weed control at 500 g/ha: 80%
[8]; post-emergence, Postemergence, scale 0 to 100 (0 no effect, 100 complete control), read-out: Morningglory plant response rating
  pest or weed control at 125 g/ha: 10%
[8]; post-emergence, Postemergence, scale 0 to 100, read-out: Plant response rating, Morningglory
  pest or weed control at 500 g/ha: 30%
[8]; pre-emergence, Preemergence, scale 0 to 100 (0 no effect, 100 complete control), read-out: Plant response rating, Morningglory
  pest or weed control at 125 g/ha: 50%
[8]; pre-emergence, Preemergence, scale 0 to 100 (0 no effect, 100 complete control), read-out: Morningglory plant response rating
  pest or weed control at 500 g/ha: 90%
[9]; post-emergence, Postemergence, scale 0 to 100 (0 no effect, 100 complete control), read-out: Foxtail, Giant plant response rating
  pest or weed control at 125 g/ha: 0%
[9]; post-emergence, Postemergence, scale 0 to 100, read-out: Plant response rating, Foxtail, Giant
  pest or weed control at 500 g/ha: 0%
[9]; pre-emergence, Preemergence, scale 0 to 100 (0 no effect, 100 complete control), read-out: Plant response rating, Foxtail, Giant
  pest or weed control at 125 g/ha: 0%
[9]; pre-emergence, Preemergence, scale 0 to 100 (0 no effect, 100 complete control), read-out: Foxtail, Giant plant response rating
  pest or weed control at 500 g/ha: 10%
[10]; post-emergence, Postemergence, scale 0 to 100 (0 no effect, 100 complete control), read-out: Velvetleaf plant response rating
  pest or weed control at 125 g/ha: 10%
[10]; post-emergence, Postemergence, scale 0 to 100, read-out: Plant response rating, Velvetleaf
  pest or weed control at 500 g/ha: 30%
[10]; pre-emergence, Preemergence, scale 0 to 100 (0 no effect, 100 complete control), read-out: Plant response rating, Velvetleaf
  pest or weed control at 125 g/ha: 10%
[10]; pre-emergence, Preemergence, scale 0 to 100 (0 no effect, 100 complete control), read-out: Velvetleaf plant response rating
  pest or weed control at 500 g/ha: 80%
[11]
  pest or weed control at 1000 g/ha: 60%
[12]
  pest or weed control at 1000 g/ha: 80%
Rice (Oryza sativa)
  plant injury at 1000 g/ha: 40%
[13]
  pest or weed control at 1000 g/ha: 0%
[14]; 125 g ai/ha, scale 0 to 100 (0 no effect, 100 complete control), read-out: Blackgrass plant response rating
  pest or weed control at 125 g/ha: 10%
[14]; 500 g ai/ha, scale 0 to 100, read-out: Plant response rating, Blackgrass
  pest or weed control at 500 g/ha: 20%
Wild oat (Avena fatua); 125 g ai/ha, scale 0 to 100 (0 no effect, 100 complete control), read-out: Oat, Wild plant response rating
  pest or weed control at 125 g/ha: 0%
Wild oat (Avena fatua); 500 g ai/ha, scale 0 to 100, read-out: Plant response rating, Oat, Wild
  pest or weed control at 500 g/ha: 0%
